In ChEMBL document CHEMBL5370591, “A Potent and Narrow-Spectrum Antibacterial against Clostridioides difficile Infection” (J Med Chem, 2023):
Values after ≈ are worked out from the molar mass of the structure shown. Active and inactive are the calls of the source. The rule behind the calls is not given here.

Key:
[1] = Selectivity ratio of IC50 for human THP-1 cells to MIC for Clostridium difficile ATCC 43255; assay type: toxicity
THP-1 = experiment: Cytotoxicity against human THP-1 cells assessed as increase in LDH release incubate for 24 hrs by trypan-blue staining based analysis; assay type: functional, cell-based; details: THP-1, 24 h
Clostridioides difficile [2] = experiment: Antibacterial activity against Clostridium difficile ATCC 43255 measured after 48 hrs by two fold serial dilution method; assay type: functional
Staphylococcus aureus [3] = experiment: Antibacterial activity against vancomycin-resistant Staphylococcus aureus clinical isolate 2 assessed as inhibition of bacterial growth by broth microdilution method; assay type: functional
Escherichia coli = experiment: Antibacterial activity against Escherichia coli ATCC25922 assessed as inhibition of bacterial growth by broth microdilution method; assay type: functional
Clostridioides difficile [4] = experiment: Antibacterial activity against Clostridium difficile BAA-1803 assessed as inhibition of bacterial growth by broth microdilution method; assay type: functional
Clostridioides difficile [5] = experiment: Antibacterial activity against Clostridium difficile ATCC 43255 assessed as damage in cell wall at 8 time MIC incubated for 24 hrs by scanning electron microscopy based analysis; assay type: functional, organism-based
Klebsiella aerogenes = experiment: Antibacterial activity against Klebsiella aerogenes ATCC35029 assessed as inhibition of bacterial growth by broth microdilution method; assay type: functional
Pseudomonas aeruginosa = experiment: Antibacterial activity against Pseudomonas aeruginosa ATCC27853 assessed as inhibition of bacterial growth by broth microdilution method; assay type: functional
Bacillus cereus = experiment: Antibacterial activity against Bacillus cereus ATCC 13061 assessed as inhibition of bacterial growth by broth microdilution method; assay type: functional
Enterococcus faecium [6] = experiment: Antibacterial activity against vancomycin susceptible Enterococcus faecium119-39A assessed as inhibition of bacterial growth by broth microdilution method; assay type: functional; details: 119-39A
Enterococcus faecium [7] = experiment: Antibacterial activity against Enterococcus faecium NCTC 7171 assessed as inhibition of bacterial growth by broth microdilution method; assay type: functional
[8] = test system: Staphylococcus haemolyticus; experiment: Antibacterial activity against Staphylococcus haemolyticus ATCC 29970 assessed as inhibition of bacterial growth by broth microdilution method; assay type: functional
Enterococcus faecalis [9] = experiment: Antibacterial activity against vancomycin resistant Enterococcus faecalis 99 assessed as inhibition of bacterial growth by broth microdilution method; assay type: functional
Staphylococcus aureus [10] = experiment: Antibacterial activity against vancomycin-resistant Staphylococcus aureus clinical isolate 1 assessed as inhibition of bacterial growth by broth microdilution method; assay type: functional
Corynebacterium sp. = experiment: Antibacterial activity against Corynebacterium sp. HM-784 assessed as inhibition of bacterial growth by broth microdilution method; assay type: functional
Bacillus licheniformis = experiment: Antibacterial activity against Bacillus licheniformis ATCC 12759 assessed as inhibition of bacterial growth by broth microdilution method; assay type: functional
Streptococcus pyogenes = experiment: Antibacterial activity against Streptococcus pyogenes ATCC 49399 assessed as inhibition of bacterial growth by broth microdilution method; assay type: functional
Enterococcus faecalis [11] = experiment: Antibacterial activity against Enterococcus faecalis ATCC 29212 assessed as inhibition of bacterial growth by broth microdilution method; assay type: functional
[12] = test system: Staphylococcus epidermidis; experiment: Antibacterial activity against Staphylococcus epidermidis ATCC 35547 assessed as inhibition of bacterial growth by broth microdilution method; assay type: functional
Enterococcus faecium [13] = experiment: Antibacterial activity against vancomycin resistant Enterococcus faecium 106 assessed as inhibition of bacterial growth by broth microdilution method; assay type: functional
Clostridioides difficile [14] = experiment: Antibacterial activity against Clostridium difficile 26675 assessed as inhibition of bacterial growth by broth microdilution method; assay type: functional
Bifidobacterium longum = experiment: Antibacterial activity against Bifidobacterium longum HM-846 assessed as inhibition of bacterial growth by broth microdilution method; assay type: functional
Klebsiella pneumoniae = experiment: Antibacterial activity against Klebsiella pneumoniae ATCC700603 assessed as inhibition of bacterial growth by broth microdilution method; assay type: functional
Enterococcus faecalis [15] = experiment: Antibacterial activity against vancomycin susceptible Enterococcus faecalis 201 assessed as inhibition of bacterial growth by broth microdilution method; assay type: functional
Clostridioides difficile [16] = experiment: Antibacterial activity against Clostridium difficile 23828 assessed as inhibition of bacterial growth by broth microdilution method; assay type: functional
Acinetobacter baumannii = experiment: Antibacterial activity against Acinetobacter baumannii ATCC17961 assessed as inhibition of bacterial growth by broth microdilution method; assay type: functional
Clostridioides difficile [17] = experiment: Antibacterial activity against Clostridium difficile 24531 assessed as inhibition of bacterial growth by broth microdilution method; assay type: functional
Clostridioides difficile [18] = experiment: Antibacterial activity against Clostridium difficile BAA-1870 assessed as inhibition of bacterial growth by broth microdilution method; assay type: functional
Bacteroides fragilis = experiment: Antibacterial activity against Bacteroides fragilis HM-709 assessed as inhibition of bacterial growth by broth microdilution method; assay type: functional
Lactobacillus gasseri = experiment: Antibacterial activity against Lactobacillus gasseri HM-644 assessed as inhibition of bacterial growth by broth microdilution method; assay type: functional
Streptococcus oralis = experiment: Antibacterial activity against Streptococcus oralis ATCC 9811 assessed as inhibition of bacterial growth by broth microdilution method; assay type: functional
[19] = test system: Limosilactobacillus reuteri; experiment: Antibacterial activity against Lactobacillus reuteri HM-102 assessed as inhibition of bacterial growth by broth microdilution method; assay type: functional
Staphylococcus aureus [20] = experiment: Antibacterial activity against Staphylococcus aureus NRS120 assessed as inhibition of bacterial growth by broth microdilution method; assay type: functional
Clostridioides difficile [21] = experiment: Antibacterial activity against Clostridium difficile NR49310 assessed as inhibition of bacterial growth by broth microdilution method; assay type: functional
Clostridioides difficile [22] = experiment: Antibacterial activity against Clostridium difficile NR49302 assessed as inhibition of bacterial growth by broth microdilution method; assay type: functional
Eubacterium sp. = experiment: Antibacterial activity against Eubacterium sp. HM-178 assessed as inhibition of bacterial growth by broth microdilution method; assay type: functional
Staphylococcus aureus [23] = experiment: Antibacterial activity against Staphylococcus aureus NRS100 assessed as inhibition of bacterial growth by broth microdilution method; assay type: functional
Staphylococcus aureus [24] = experiment: Antibacterial activity against Staphylococcus aureus ATCC 27660 assessed as inhibition of bacterial growth by broth microdilution method; assay type: functional
Clostridioides difficile [25] = experiment: Antibacterial activity against Clostridium difficile ATCC 43255 assessed as inhibition of bacterial growth by broth microdilution method; assay type: functional
Fusobacterium nucleatum = experiment: Antibacterial activity against Fusobacterium nucleatum HM-992 assessed as inhibition of bacterial growth by broth microdilution method; assay type: functional
Staphylococcus aureus [26] = experiment: Antibacterial activity against Staphylococcus aureus ATCC 29213 assessed as inhibition of bacterial growth by broth microdilution method; assay type: functional
Veillonella = experiment: Antibacterial activity against Veillonella HM-49 assessed as inhibition of bacterial growth by broth microdilution method; assay type: functional
Clostridioides difficile [27] = experiment: Antibacterial activity against Clostridium difficile NR49292 assessed as inhibition of bacterial growth by broth microdilution method; assay type: functional
Clostridioides difficile [28] = experiment: Antibacterial activity against Clostridium difficile NR49305 assessed as inhibition of bacterial growth by broth microdilution method; assay type: functional
Clostridioides difficile [29] = experiment: Antibacterial activity against Clostridium difficile NR49294 assessed as inhibition of bacterial growth by broth microdilution method; assay type: functional
Clostridioides difficile [30] = experiment: Antibacterial activity against Clostridium difficile NR49318 assessed as inhibition of bacterial growth by broth microdilution method; assay type: functional
Staphylococcus aureus [31] = experiment: Antibacterial activity against Staphylococcus aureus NRS119 assessed as inhibition of bacterial growth by broth microdilution method; assay type: functional

Structure (SMILES): O=[N+]([O-])c1ccccc1Oc1ccc(-c2noc(-c3ccc(O)cc3)n2)cc1
- selectivity ratio [1]: 3
- IC50 (THP-1): 16 mg/L (≈ 42.6 µM)
- MIC (Clostridioides difficile [2]): 4 mg/L (≈ 10.7 µM)

Structure (SMILES): O=[N+]([O-])c1c[nH]nc1-c1nc(-c2ccc(Oc3ccc(C(F)(F)F)cc3)cc2)no1
- selectivity ratio [1]: 5
- IC50 (THP-1): 21 mg/L (≈ 50.3 µM)
- MIC (Clostridioides difficile [2]): 4 mg/L (≈ 9.59 µM)

Structure (SMILES): Cc1ncc([N+](=O)[O-])n1CCO [METRONIDAZOLE]
- MIC (Staphylococcus aureus [3]): > 256 mg/L
- MIC (Escherichia coli): > 128 mg/L
- MIC (Clostridioides difficile [4]): 0.5 mg/L (≈ 2.92 µM)
- Activity (Clostridioides difficile [5]): inactive
- MIC (Klebsiella aerogenes): > 128 mg/L
- MIC (Pseudomonas aeruginosa): > 128 mg/L
- MIC (Bacillus cereus): > 256 mg/L
- MIC (Enterococcus faecium [6]): > 16 mg/L
- MIC (Enterococcus faecium [7]): > 128 mg/L
- MIC [8]: > 256 mg/L
- MIC (Enterococcus faecalis [9]): > 256 mg/L
- MIC (Staphylococcus aureus [10]): > 256 mg/L
- MIC (Corynebacterium sp.): > 32 mg/L
- MIC (Bacillus licheniformis): > 256 mg/L
- MIC (Streptococcus pyogenes): > 128 mg/L
- MIC (Enterococcus faecalis [11]): > 256 mg/L
- MIC [12]: > 128 mg/L
- MIC (Enterococcus faecium [13]): > 16 mg/L
- MIC (Clostridioides difficile [14]): 4 mg/L (≈ 23.4 µM)
- MIC (Bifidobacterium longum): 0.05 mg/L (≈ 0.292 µM)
- MIC (Klebsiella pneumoniae): > 128 mg/L
- MIC (Enterococcus faecalis [15]): > 256 mg/L
- MIC (Clostridioides difficile [16]): 0.5 mg/L (≈ 2.92 µM)
- MIC (Acinetobacter baumannii): > 128 mg/L
- MIC (Clostridioides difficile [17]): 0.5 mg/L (≈ 2.92 µM)
- MIC (Clostridioides difficile [18]): 0.5 mg/L (≈ 2.92 µM)

Structure (SMILES): Cl.NCc1ccc(-c2nc(-c3ccc(Oc4ccc(C(F)(F)F)cc4)cc3)no2)cc1
- selectivity ratio [1]: 1
- MIC (Clostridioides difficile [2]): 4 mg/L

Structure (SMILES): Oc1ccc(-c2nc(-c3ccc(OC4CCCC4)cc3)no2)cc1
- MIC (Staphylococcus aureus [3]): 2 mg/L (≈ 6.2 µM)
- MIC (Bacteroides fragilis): 2 mg/L (≈ 6.2 µM)
- MIC (Escherichia coli): > 128 mg/L
- MIC (Lactobacillus gasseri): > 128 mg/L
- MIC (Streptococcus oralis): > 128 mg/L
- IC50 (THP-1): 18 mg/L (≈ 55.8 µM)
- MIC (Klebsiella aerogenes): > 128 mg/L
- MIC [19]: > 128 mg/L
- MIC (Pseudomonas aeruginosa): > 128 mg/L
- MIC (Staphylococcus aureus [20]): 2 mg/L (≈ 6.2 µM)
- MIC (Bacillus cereus): 2 mg/L (≈ 6.2 µM)
- MIC (Clostridioides difficile [21]): 4 mg/L (≈ 12.4 µM)
- MIC (Enterococcus faecium [6]): 2 mg/L (≈ 6.2 µM)
- MIC (Enterococcus faecium [7]): 4 mg/L (≈ 12.4 µM)
- MIC (Clostridioides difficile [22]): 2 mg/L (≈ 6.2 µM)
- MIC (Eubacterium sp.): 4 mg/L (≈ 12.4 µM)
- MIC (Staphylococcus aureus [23]): 1 mg/L (≈ 3.1 µM)
- MIC (Staphylococcus aureus [24]): 2 mg/L (≈ 6.2 µM)
- MIC (Clostridioides difficile [25]): 2 mg/L (≈ 6.2 µM)
- MIC [8]: 2 mg/L (≈ 6.2 µM)
- MIC (Fusobacterium nucleatum): 2 mg/L (≈ 6.2 µM)
- MIC (Enterococcus faecalis [9]): 4 mg/L (≈ 12.4 µM)
- MIC (Staphylococcus aureus [10]): 2 mg/L (≈ 6.2 µM)
- MIC (Staphylococcus aureus [26]): 2 mg/L (≈ 6.2 µM)
- MIC (Bacillus licheniformis): 4 mg/L (≈ 12.4 µM)
- MIC (Veillonella): > 128 mg/L
- MIC (Clostridioides difficile [27]): 2 mg/L (≈ 6.2 µM)
- MIC (Clostridioides difficile [28]): 2 mg/L (≈ 6.2 µM)
- MIC (Streptococcus pyogenes): > 128 mg/L
- MIC (Clostridioides difficile [29]): 2 mg/L (≈ 6.2 µM)
- MIC (Enterococcus faecalis [11]): 4 mg/L (≈ 12.4 µM)
- MIC [12]: 2 mg/L (≈ 6.2 µM)
- MIC (Enterococcus faecium [13]): 2 mg/L (≈ 6.2 µM)
- MIC (Clostridioides difficile [14]): 4 mg/L (≈ 12.4 µM)
- MIC (Bifidobacterium longum): 1 mg/L (≈ 3.1 µM)
- MIC (Clostridioides difficile [30]): 4 mg/L (≈ 12.4 µM)
- MIC (Klebsiella pneumoniae): > 128 mg/L
- MIC (Enterococcus faecalis [15]): 4 mg/L (≈ 12.4 µM)
- MIC (Clostridioides difficile [16]): 4 mg/L (≈ 12.4 µM)
- MIC (Staphylococcus aureus [31]): 1 mg/L (≈ 3.1 µM)
- MIC (Acinetobacter baumannii): > 128 mg/L
- MIC (Clostridioides difficile [17]): 4 mg/L (≈ 12.4 µM)
- MIC (Clostridioides difficile [18]): 2 mg/L (≈ 6.2 µM)

Structure (SMILES): O=[N+]([O-])c1cc(-c2nc(-c3ccc(Oc4ccc(C(F)(F)F)cc4)cc3)no2)cnc1O
- selectivity ratio [1]: 19
- IC50 (THP-1): 37 mg/L (≈ 83.3 µM)
- MIC (Clostridioides difficile [2]): 2 mg/L (≈ 4.5 µM)
